Experimental data taken from patent publication US20050014816A1, “Thiophene amino acid derivatives, process for preparing them and pharmaceutical compositions containing them” (Pfizer Inc, priority 2003, published 2005).

Tests used:
MMP-12 = MMP-12 (Homo sapiens, UniProt P39900); assay: in vitro inhibitory activity on MMP-12 (proteolysis of FP-1 peptide substrate); type: biochemical; settings: FP-1 substrate 10 μM, 20 minutes at room temperature
Protocol: in vitro Evaluation of the Inhibitory Activity of the Compounds of the Invention on MMP-12:
The inhibitory activity of the compounds of formula (I) on metalloprotease-12 is evaluated by testing the capacity of the compounds of the invention to inhibit the proteolysis of a peptide that is an MMP-12 substrate.
The substrate peptide used (fluorigenic peptide-1: FP-1) in the test has the following sequence: Mca-Pro-Leu-Gly-Leu-Dap(Dnp)-Ala-Arg-NH2.
The inhibitory activity of a compound of formula (I) is expressed as the IC50 value, which represents the concentration of inhibitor for which a 50% inhibition of the metalloprotease is observed.
The reaction starts with the sequential addition of 41 μl of FP-1 substrate (final concentration of 10 μM) to a buffer solution of 50 mM of Tris-HCl and 10 mM of CaCl2, and containing 5 mM of hydroxamic acid and 5 μl of the enzyme diluted in a 0.005% Brij-35 buffer solution. The microplates are incubated for 20 minutes at room temperature. The compounds of the invention are tested at concentrations ranging from 0.3 to 30 μM. The measurement of the amount of proteolysis of the peptide substrate is monitored by means of a measurement of absorbance at 405 nm using a microplate spectrophotometer, at room temperature. The IC50 values are calculated from curves in which the percentage of the catalytic activity relative to the control is represented on the […] and the inhibitor concentration is represented on the y-axis.

MMP-13 = MMP-13 (Homo sapiens, UniProt P45452); assay: MMP-12 inhibition test adapted to MMP-13; type: biochemical; settings: test for MMP-12 adapted to MMP-13
Protocol: The reaction starts with the sequential addition of 41 μl of FP-1 substrate (final concentration of 10 μM) to a buffer solution of 50 mM of Tris-HCl and 10 mM of CaCl2, and containing 5 mM of hydroxamic acid and 5 μl of the enzyme diluted in a 0.005% Brij-35 buffer solution. The microplates are incubated for 20 minutes at room temperature. The compounds of the invention are tested at concentrations ranging from 0.3 to 30 μM. The measurement of the amount of proteolysis of the peptide substrate is monitored by means of a measurement of absorbance at 405 nm using a microplate spectrophotometer, at room temperature. The IC50 values are calculated from curves in which the percentage of the catalytic activity relative to the control is represented on the x-axis and the inhibitor concentration is represented on the y-axis.
The test described above for the inhibition of MMP-12 is adapted and used to determine the capacity of the compounds of formula (I) to inhibit the metalloproteases MMP-1, MMP-2, MMP-3, MMP-7, MMP-9, MMP-13 and MMP-14.

Chain of MMP-12 (P39900 106-470): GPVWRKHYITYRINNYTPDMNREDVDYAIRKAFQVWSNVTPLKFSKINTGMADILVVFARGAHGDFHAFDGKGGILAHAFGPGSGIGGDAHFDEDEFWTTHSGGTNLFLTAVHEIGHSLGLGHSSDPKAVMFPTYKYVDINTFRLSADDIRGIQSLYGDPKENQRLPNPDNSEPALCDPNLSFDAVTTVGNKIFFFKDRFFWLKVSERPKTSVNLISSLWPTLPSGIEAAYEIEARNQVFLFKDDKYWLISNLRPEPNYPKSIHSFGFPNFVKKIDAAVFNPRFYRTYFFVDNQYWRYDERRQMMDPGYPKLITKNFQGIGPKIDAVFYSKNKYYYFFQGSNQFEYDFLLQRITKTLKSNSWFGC

Row | Compound | IC50 (MMP-12) [µM] | IC50 (MMP-13) [µM]
1 | O=C(N[C@H](C(=O)O)c1ccccc1)c1cc(-c2ccc(OC(F)(F)F)cc2)cs1 [Example 2] | 0.38 | 4.5
2 | O=C(N[C@H](Cc1ccccc1)C(=O)O)c1cc(-c2ccc(OC(F)(F)F)cc2)cs1 [Example 8, (2R)-{[4-(4-Trifluoromethoxyphenyl)thien-2-yl]carboxamido}(phenyl)-propanoic acid] | 0.18 | 2.2
3 | O=C(O)C[C@H](Cc1ccccc1)NC(=O)c1cc(-c2ccc(OC(F)(F)F)cc2)cs1 [Example 12, (3S)-3-{[4-(4-Trifluoromethoxyphenyl)thien-2-yl]carboxamido)-4-phenylbutanoic acid] | 0.53 | 8.3
4 | O=C(N[C@H](C(=O)O)c1ccccc1)c1cc(-c2ccc(C3CCCCC3)cc2)cs1 [Example 16, (2S)-{[4-(4-cyclohexylphenyl)thien-2-yl]carboxamido}(phenyl)acetic acid] | 0.54 | 6.5

Continued, values first:

Row | IC50 (MMP-12) [µM] | IC50 (MMP-13) [µM] | Compound
5 | 0.42 | 3.6 | O=C(O)CC(NC(=O)c1cc(-c2ccc(OC(F)(F)F)cc2)cs1)c1ccccc1 (racemic) [Example 6, {1[(4-Trifluoromethoxyphenyl)thien-2-yl]carboxamido}(phenyl)-propanoic acid]
6 | 0.47 | 5.6 | O=C(N[C@@H](C(=O)O)c1ccccc1)c1cc(-c2ccc(OC(F)(F)F)cc2)cs1 [Example 4, (2R)-{[4-(4-Trifluoromethoxyphenyl)thien-2-yl]carboxamido}-(phenyl)acetic acid]
7 | 0.077 | 0.96 | NC(=O)C[C@@H](NC(=O)c1cc(-c2ccc(OC(F)(F)F)cc2)cs1)c1ccccc1 [Example 9]
8 | 0.04 | 0.12 | CC(=O)c1ccc(-c2ccc(-c3csc(C(=O)N[C@H](C(=O)O)c4ccccc4)c3)cc2)cc1 [Example 18, (2S)4-[({4-[4-(4-Acetylphenyl)phenyl]thien-2-yl}carbonyl)amino]-(phenyl)acetic acid]
9 | 0.028 | 0.069 | CC(=O)c1ccc(-c2ccc(-c3csc(C(=O)N[C@H](CC(=O)O)c4ccccc4)c3)cc2)cc1 [Example 20]
